Patent EP1708721B1, “MYOCARDIAL PERFUSION IMAGING USING ADENOSINE RECEPTOR AGONISTS” (Gilead Sciences, Inc., priority 2004, dated 2005)
In brackets after ≈: the same amount, converted by molar mass.

Legend:
[1] = tested on: subjects (27 men, 9 women); experiment: Example 7: pharmacologic stress myocardial perfusion imaging protocol, adverse effects and hemodynamics; format: in vivo, human
Text: 36 subjects (27 men, 9 women; 67±10 years) were studied with two doses of CVT-3146 [400 mcg (n=18), 500 mcg (n=18)], administered as an IV bolus, as part of a pharmacologic stress myocardial perfusion imaging protocol.

[2] = tested on: subjects (26 men, 9 women); experiment: Example 6: stress/rest SPECT myocardial perfusion imaging, adenosine versus CVT-3146; format: in vivo, human
Description: To determine the ability of CVT-3146 to produce coronary hyperemia and accurately detect CAD, 35 subjects (26 men, 9 women; 67±10 years) underwent both A and CVT-3146 stress/rest MPI, with 10.0±9.1 days between studies. […] CVT-3146 [400 mcg (n=18), 500 mcg (n=17)] was administered as an IV bolus immediately followed by a saline flush, and then a Tc-99m radiopharmaceutical [sestamibi (n=34), tetrofosmin (n=1)]. SPECT images were uniformly processed, intermixed with control studies (normal and fixed-only defects), and interpreted by three observers in a blinded fashion using a 17-segment model. Quantitative analysis was also performed using 4D MSPECT. In addition to three separate readings, a consensus interpretation was performed and then a direct, same-screen comparison of A and CVT-3146 images undertaken to determine relative differences, using 5 regions per study.

[3] = tested on: anesthetized dog; experiment: Example 4: blood flow velocity in various vascular beds, intravascular Doppler catheter; format: in vivo; settings: 1.0 µg/kg intravenous bolus
Text: The effects of CVT-3146 were quantified as the average peak blood flow velocity (APV) using intravascular Doppler transducer tipped catheter. Heart rate (HR) and systemic arterial blood pressure (BP) were also monitored. […] Increased blood flow velocity was associated with a small transient increase in HR (16 bpm) and decrease in BP (12 mmHg).

[4] = tested on: awake rats; experiment: Example 5: sympathoexcitation, heart rate, blood pressure and plasma catecholamines after i.v. bolus; format: in vivo
Description: The present study was carried out to determine whether CVT-3146, a selective A2A adenosine receptor agonist, causes sympathoexcitation. CVT-3146 (0.31µg/kg-50 µg/kg) was given as a rapid i.v. bolus to awake rats and heart rate (HR) and blood pressure (BP) were monitored. CVT-3146 caused an increase in BP and systolic pressure (SP) at lower doses while at higher doses there was a decrease in BP and SP. […] The increase in HR was evident at the lowest dose of CVT-3146 at which there was no appreciable decrease in BP. ZM241385 (30 µg/kg , N=5), an A2A receptor antagonist, attenuated the decrease in BP (CVT-3146: 14±3%, ZM: 1±1 %) and the increase in HR (CVT: 27±3%, ZM: 18±3%) caused by CVT-3146. Pretreatment with metoprolol (MET, 1 mg/kg, n=5), a beta-blocker, attenuated the increase in HR (CVT: 27±3%, MET: 15±2%), but had no effect on hypotension caused by CVT-3146. In the presence of hexamethonium (HEX, 10 mg/kg, n=5), a ganglionic blocker, the tachycardia was prevented (CVT: 27±3%, HEX: -1±2%), but BP was further reduced (CVT: -11±2%, HEX: -49±5%).

[5] = half-life of CVT-3146 (background statement); settings: in vivo; species not stated; read-out: initial half-life
Description: The purpose of this open label study was to determine the magnitude and duration of effect of CVT-3146 (10-500 µg) on CBFv in humans.

[6] = solubility in water; format: physicochemical
Description: CVT-3146 has solubility in water of about 50 micrograms/mL. Therefore, CVT-3146 can be dissolved and administered in water so long as the desired weight amount of CVT-3146 can be administered in an acceptable volume. For example, a preferred dose of about 400 micrograms can be administered in 8 mL of water. If this volume is too great for administration purposes, or if the pharmaceutical composition will be stored at other than room temperature (RT), then additional ingredients can be added to the composition to increase the solubility of CVT-3146 in the composition and/or to provide the resulting pharmaceutical composition with other improved properties such as improved stability and storage properties. Pharmaceutical compositions of this invention may include up to about 1 milligram/mL of CVT-3146. It is preferred that pharmaceutical compositions including CVT-3146 include from 50 to 250 micrograms/mL, and more preferably from 50 to 150 micrograms/mL of CVT-3146.

[7] = tested on: awake dogs; experiment: increase of coronary blood flow velocity (CBFv) in awake dogs, potency versus adenosine (background statement); format: in vivo; settings: relative to adenosine
[8] = peak hemodynamic changes, mean±S.D., 400 and 500 mcg
[9] = direct comparison of A and CVT-3146 images, 5 regions per study

For CNC(=O)c1cnn(-c2nc(N)c3ncn([C@@H]4O[C@H](CO)[C@@H](O)[C@H]4O)c3n2)c1 [CVT-3146, (1-{9-[(4S,2R,3R,5R)-3,4-dihydroxy-5-(hydroxymethyl)oxolan-2-yl]-6-aminopurin-2-yl}pyrazol-4-yl)-N-methylcarboxamide], the ST abnormalities developed ([1]; 36 subjects) was 7 pts, the “T wave abnormalities developed” value ([1]; 36 subjects) was 5 pts and the Flushing ([1]; 400-mcg group) was 17%. The dizziness ([1]; 400-mcg group) was 11%, the dyspnea ([1]; 400-mcg group) was 17% and the “mean change in HR response” value ([1]; 400 mcg dose) was 34.8%. It also gave a Flushing ([1]; 500-mcg group) of 44%, a dizziness ([1]; 500-mcg group) of 28% and a dyspnea ([1]; 500-mcg group) of 44%. The “mean change in HR response” value ([1]; 500 mcg dose) was 44.2%, the “BP changes deviated from baseline” value ([1]; Thirty min after CVT-3146) was less than 2% and the “HR remained above baseline by” value ([1]; Thirty min after CVT-3146) was 8.6%. The abdominal pain ([1]; both doses, 36 subjects) was 11%, the chest discomfort ([1]; both doses, 36 subjects) was 33% and the headache ([1]; both doses, 36 subjects) was 25%. The “systolic BP did not fall below” value ([1]; either dose) was no less than 90 mmHg, the “serious AE occurred” value ([1]; exacerbation of a migraine headache, required hospitalization) was “One” and the “2nd or 3rd degree AV block” value ([1]; in vivo) was “No 2nd or 3rd degree AV block was noted”. The serious arrhythmias ([1]; in vivo) was “no serious arrhythmias”, the “time of peak hemodynamic effect, diastolic BP” value ([1]; in vivo) was 8 min and the “time of peak hemodynamic effect, heart rate (HR)” value ([1]; in vivo) was no more than 0.033 h. The “time of peak hemodynamic effect, systolic blood pressure (BP)” value ([1]; in vivo) was 4 min, the “Diastolic BP, Absolute Change” value [1, 8] was -5.4±7.2 mmHg and the “Diastolic BP, Relative Change” value [1, 8] was -7.9%±10.5%. The “Heart Rate, Absolute Change” value [1, 8] was “+21.9±10.4 beats per min”, the “Heart Rate, Relative Change” value [1, 8] was “+36.7%+21.0%” and the “Systolic BP, Absolute Change” value [1, 8] was -5.9±10.7 mmHg. The “Systolic BP, Relative Change” value [1, 8] was 4.1%±7.6%, the “AEs mild to moderate” value ([1]; share of AEs) was 96% and the “AEs resolved within 15 min without treatment” value ([1]; share of AEs) was 91%. The “summed scores following stress, quantitative methods of analysis” value ([2]; SPECT MPI, 4D MSPECT, CVT-3146 400 or 500 mcg IV bolus, A infusion) was 13.6±1.6, the “summed scores following stress, visual” value ([2]; SPECT MPI, 17-segment model, CVT-3146 400 or 500 mcg IV bolus, A infusion) was 13.2±1.3 and the “regional concordance for ischemia extent” value [2, 9] was 86.3%. The “regional concordance for ischemia severity” value [2, 9] was 83.4%, the “decrease in BP” value [3] was 12 mmHg and the “small transient increase in HR” value [3] was 16 bpm. The “time to dissipation of effect on blood flow velocity” value [3] was “less than ten”, the “time to peak of effect on blood flow velocity” value [3] was “less than 30 sec” and the “APV increased (average peak blood flow velocity)” value (from here on “APV increased”) ([3]; brain arterial vasculature (BA)) was 1.4 ± 0.1 fold. The “APV increased” value ([3]; forelimb artery (FA)) was 1.2 ± 0.1 fold, the “APV increased” value ([3]; left circumflex coronary artery (LCX)) was 3.1 ± 0.2 fold and the “APV increased” value ([3]; pulmonary artery (PA)) was 1.1 ± 0.01 fold. The “increase in HR” value ([4]; CVT-3146 alone) was 27±3%, the “decrease in BP” value ([4]; CVT-3146 alone (comparison with ZM241385)) was 14±3% and the “BP (change)” value ([4]; CVT-3146 alone (comparison with hexamethonium)) was -11±2%. The half-life [5] was 3 min, the solubility [6] was roughly 50 µg/mL (≈ 128 µM) and the “more potent than adenosine (Ado) in increasing coronary blood flow velocity (CBFv)” value [7] was greater than 100 fold.
